Results: patent publication US9376391B2, “Difluoromethyl-nicotinic-tetrahydronaphthyl carboxamides as fungicides” (BAYER CROPSCIENCE AKTIENGESELLSCHAFT, priority 2012, dated 2016)

Assays:
[1] = test system: Sphaerotheca fuliginea; test: In vivo preventive test on Sphaerotheca fuliginea (powdery mildew on cucurbits); conditions: preventive spray, gherkin plants, grading 12 days after contamination
Procedure, shortened: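 Gherkin plants at Z11 cotyledon stage were sprayed with compound in acetone/tween/DMSO/water. After 24 h they were inoculated with S. fuliginea spores (100 000 spores per ml) and incubated at about 20° C and 70-80% RH. Percent efficacy versus solvent-treated controls was scored 12 days post-inoculation.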

[2] = log P by HPLC on reversed phase columns (EEC directive 79/831 Annex V.A8); format: physicochemical; conditions: Table 1, formula (I); HPLC/LC-MS at pH 2.7, 0.1% formic acid in water / acetonitrile, gradient 10% to 95%
[3] = test system: Uromyces appendiculatus; test: In vivo preventive test on Uromyces appendiculatus (bean rust); conditions: preventive spray, bean plants, grading 11 days after contamination
Procedure, shortened: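 'Saxa' bean plants at the 2-leaf stage were sprayed with compound and inoculated 24 h later with U. appendiculatus spores (150 000 spores per ml). Plants were incubated 24 h at 20 °C and 100% RH, then 10 days at 20 °C and 70–80% RH. Percent efficacy versus solvent-treated controls was graded 11 days post-inoculation.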

[4] = test system: Septoria tritici; test: In vivo preventive test on Septoria tritici (leaf spot on wheat); conditions: 500 ppm, preventive spray, wheat plants, grading 24 days after contamination
Procedure: In Vivo Preventive Test on Septoria tritici (Leaf Spot on Wheat)
(§1) The active ingredients tested are prepared by homogenization in a mixture of acetone/tween/DMSO, and then diluted with water to obtain the desired active material concentration.
Wheat plants (“Scipion” variety), sown in starter cups on a 50/50 peat soil-pozzolana substrate and grown at 22° C., are treated at the 1-leaf stage (10 cm height) by spraying with the active ingredient prepared as described above. Plants, used as controls, are treated with the mixture of acetone/tween/DMSO/water not containing the active material.
After 24 hours, the plants are contaminated by spraying the leaves with an aqueous suspension of cryopreserved Septoria tritici spores (500 000 spores per ml). The contaminated wheat plants are incubated for 72 hours at 18° C. and at 100% relative humidity, and then for 21 days at 90% relative humidity.
Grading (% of efficacy) is carried out 24 days after the contamination, in comparison with the control plants.

[5] = test system: Phakopsora pachyrhizi; test: Phakopsora test (soybeans)/preventive; format: in vivo; conditions: evaluated 7 days after inoculation
Procedure: Phakopsora Test (Soybeans)/Preventive
To produce a suitable preparation of active compound, 1 part by weight of active compound is mixed with the stated amounts of solvent and emulsifier, and the concentrate is diluted with water to the desired concentration.
To test for preventive activity, young plants are sprayed with the preparation of active compound at the stated rate of application. After the spray coating has dried on, the plants are inoculated with an aqueous spore suspension of the causal agent of soybean rust (Phakopsora pachyrhizi) and stay for 24 h without light in an incubation cabinet at approximately 24° C. and a relative atmospheric humidity of 95%.
The plants remain in the incubation cabinet at approximately 24° C. and a relative atmospheric humidity of approximately 80% and a day/night interval of 12 h.
The test is evaluated 7 days after the inoculation. 0% means an efficacy which corresponds to that of the untreated control, while an efficacy of 100% means that no disease is observed.

[6] = test system: Pyrenophora teres; test: In vivo preventive test on Pyrenophora teres (net blotch on barley); conditions: barley, spray, graded 14 days after contamination vs control plants
Procedure: In Vivo Preventive Test on Pyrenophora teres (Net Blotch on Barley)
as §1
Barley plants (“Plaisant” variety), sown in starter cups on a 50/50 peat soil-pozzolana substrate and grown at 22° C., are treated at the 1-leaf stage (10 cm height) by spraying with the active ingredient prepared as described above. Plants, used as controls, are treated with the mixture of acetone/tween/DMSO/water not containing the active material.
After 24 hours, the plants are contaminated by spraying the leaves with an aqueous suspension of Pyrenophora teres spores (12 000 spores per ml). The spores are collected from a 12-day-old culture. The contaminated barley plants are incubated for 48 hours at 20° C. and at 100% relative humidity, and then for 12 days at 20° C. at 70-80% relative humidity.
Grading (% of efficacy) is carried out 14 days after the contamination, in comparison with the control plants. plants.

[7] = test system: Alternaria brassicae; test: In vivo preventive test on Alternaria brassicae (leaf spot on radish); conditions: spray, graded 6 days after contamination vs control plants
Procedure: In Vivo Preventive Test on Alternaria brassicae (Leaf Spot on Radish)
as §1
Radish plants (“Pernod Clair” variety), sown in starter cups on a 50/50 peat soil-pozzolana substrate and grown at 17° C., are treated at the cotyledon stage by spraying with the active ingredient prepared as described above. Plants, used as controls, are treated with the mixture of acetone/tween/DMSO/water not containing the active material.
After 24 hours, the plants are contaminated by spraying the cotyledons with an aqueous suspension of Alternaria brassicae spores (50 000 spores per ml). The spores are collected from a 15-day-old culture. The contaminated radish plants are incubated at 20° C. and at 100% relative humidity.
Grading (% of efficacy) is carried out 6 days after the contamination, in comparison with the control plants.

[8] = test system: Puccinia recondita; test: In vivo preventive test on Puccinia recondita (brown rust on wheat); conditions: wheat, spray, graded 12 days after contamination vs control plants
Procedure, shortened: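 Wheat seedlings ("Scipion") sprayed with compound at the 1-leaf stage, inoculated 24 h later with Puccinia recondita spores (100 000 spores per ml). Incubated 24 h at 20° C and 100% RH, then 10 days at 20° C and 70-80% RH. Efficacy (%) versus solvent-treated controls graded 12 days after contamination.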

[9] = test system: Botrytis cinerea; test: In vivo preventive test on Botrytis cinerea (grey mould), gherkin plants; conditions: gherkin, spray, graded 4 to 5 days after contamination vs control plants
Procedure: In Vivo Preventive Test on Botrytis cinerea (Grey Mould)
The active ingredients tested are prepared by homogenization in a mixture of acetone/tween/DMSO and then diluted with water to obtain the desired active material concentration.
Gherkin plants (“Vert petit de Paris” variety), sown in starter cups on a 50/50 peat soil-pozzolana substrate and grown at 24° C., are treated at the Z11 cotyledon stage by spraying with the active ingredient prepared as described above. Plants, used as controls, are treated with the mixture of acetone/tween/DMSO/water not containing the active material.
After 24 hours, the plants are contaminated by spraying the cotyledons with an aqueous suspension of cryopreserved Botrytis cinerea spores (50 000 spores per ml). The spores are suspended in a nutrient solution composed of 10 g/L of PDB, 50 g/L of D-Fructose, 2 g/L of NH4NO3 and 1 g/L of KH2PO4. The contaminated gherkin plants are incubated at 17° C. and at 90% relative humidity.
Grading (% of efficacy) is carried out 4 to 5 days after the contamination, in comparison with the control plants.

In the case of `CC1CC(C(C)C)c2cccc(NC(=O)c3cccnc3C(F)F)c21` (stereo not shown) [Example 3], the Eff. % ([1]; 500 ppm) was 95%, the “logP^[a]” value [2] was 3.65^[a] and the Eff. % ([3]; 500 ppm) was 100%. It also gave an Eff. % [4] of 90%, an Eff. % ([5]; 100 ppm of active ingredient) of 100% and an Eff. % ([6]; dose 500 ppm) of 83%. For the same molecule, the Eff. % ([7]; dose 500 ppm) was 86% and the Eff. % ([8]; dose 500 ppm) was 97%.
In the case of `CCC1(C)CC(C)c2c(NC(=O)c3cccnc3C(F)F)cccc21` (mixture of isomers) [Example 81], the Eff. % ([9]; dose 100 ppm) was 100%, the Eff. % ([1]; 100 ppm) was 94% and the “logP^[a]” value [2] was 3.64^[a]. The Eff. % ([3]; 100 ppm) was 99%, the Eff. % ([5]; 10 ppm of active ingredient) was 100% and the Eff. % ([7]; dose 100 ppm) was 70%. For the same molecule, the Eff. % ([8]; dose 100 ppm) was 100%.
With `CC(C)C1Cc2c(NC(=O)c3cccnc3C(F)F)cccc2C1(C)C` (racemic) [Example 43] the Eff. % ([1]; 500 ppm) was 100%, the “logP^[a]” value [2] was 4.11^[a] and the Eff. % ([3]; 500 ppm) was 100%. The Eff. % [4] was 86%, the Eff. % ([5]; 10 ppm of active ingredient) was 98% and the Eff. % ([7]; dose 500 ppm) was 100%. It also gave an Eff. % ([8]; dose 500 ppm) of 98%.
In the case of `CC1Cc2c(NC(=O)c3cccnc3C(F)F)cccc2C1(C)C` (stereo not shown) [Example 14], the Eff. % ([1]; 500 ppm) was 98%, the “logP^[a]” value [2] was 3.33^[a] and the Eff. % ([3]; 500 ppm) was 100%. For the same molecule, the Eff. % [4] was 97%, the Eff. % ([5]; 10 ppm of active ingredient) was 100% and the Eff. % ([6]; dose 500 ppm) was 92%. For the same molecule, the Eff. % ([8]; dose 500 ppm) was 100%.
For `CCC1Cc2c(NC(=O)c3cccnc3C(F)F)cccc2C1(C)C` (racemic) [Example 37], the Eff. % ([1]; 500 ppm) was 100%, the “logP^[a]” value [2] was 3.78^[a] and the Eff. % ([3]; 500 ppm) was 100%. For the same molecule, the Eff. % [4] was 97%, the Eff. % ([5]; 10 ppm of active ingredient) was 95% and the Eff. % ([7]; dose 500 ppm) was 96%. It also gave an Eff. % ([8]; dose 500 ppm) of 100%.
For `CC(C)CC1CC(C)c2c(NC(=O)c3cccnc3C(F)F)cccc21` (stereo not shown) [Example 57], the Eff. % ([1]; 500 ppm) was 98%, the “logP^[a]” value [2] was 4.15^[a] and the Eff. % ([3]; 500 ppm) was 100%. For the same molecule, the Eff. % ([5]; 10 ppm of active ingredient) was 93%, the Eff. % ([6]; dose 500 ppm) was 97% and the Eff. % ([7]; dose 500 ppm) was 97%. The Eff. % ([8]; dose 500 ppm) was 98%.
In the case of `CC1CC(CC(C)(C)C)c2cccc(NC(=O)c3cccnc3C(F)F)c21` (stereo not shown) [Example 46], the Eff. % ([9]; dose 500 ppm) was 83%, the Eff. % ([1]; 500 ppm) was 100% and the “logP^[a]” value [2] was 4.39^[a]. It also gave an Eff. % ([3]; 500 ppm) of 100%, an Eff. % [4] of 71% and an Eff. % ([5]; 10 ppm of active ingredient) of 90%. It also gave an Eff. % ([7]; dose 500 ppm) of 98% and an Eff. % ([8]; dose 500 ppm) of 98%.
With `CC1CC(C)(C)c2cccc(NC(=O)c3cccnc3C(F)F)c21` (stereo not shown) [Example 13] the Eff. % ([1]; 500 ppm) was 100%, the “logP^[a]” value [2] was 3.25^[a] and the Eff. % ([3]; 500 ppm) was 100%. It also gave an Eff. % [4] of 83%, an Eff. % ([5]; 100 ppm of active ingredient) of 99% and an Eff. % ([6]; dose 500 ppm) of 100%. The Eff. % ([7]; dose 500 ppm) was 93% and the Eff. % ([8]; dose 500 ppm) was 100%.
With `CCC1OC(CC)(CC)c2cccc(NC(=O)c3cccnc3C(F)F)c21` (racemic) [Example 71] the Eff. % ([1]; 100 ppm) was 100%, the “logP^[a]” value [2] was 3.23^[a] and the Eff. % ([3]; 100 ppm) was 100%. It also gave an Eff. % ([5]; 10 ppm of active ingredient) of 94%, an Eff. % ([6]; dose 100 ppm) of 92% and an Eff. % ([7]; dose 100 ppm) of 88%. It also gave an Eff. % ([8]; dose 100 ppm) of 98%.
With `CC1CC(C)(C)c2cccc(NC(=S)c3cccnc3C(F)F)c21` (racemic) [Example 9] the Eff. % ([1]; 500 ppm) was 100%, the “logP^[a]” value [2] was 3.74^[a] and the Eff. % ([3]; 500 ppm) was 100%. For the same molecule, the Eff. % [4] was 98%, the Eff. % ([5]; 100 ppm of active ingredient) was 99% and the Eff. % ([6]; dose 500 ppm) was 86%. For the same molecule, the Eff. % ([8]; dose 500 ppm) was 100%.
